# Data from patent US12685983B2, “Benefit agent delivery system” (ITC Limited, priority 2020, dated 2026).
# Where two headings read alike, the source gives them in different places.
# What was measured:
# [1] = GC head space of benefit agents in the presence of PVP and BHT; assay type: physicochemical
# [2] = cited from earlier work
# [3] = GC-head space: effect of enablers on the encapsulation of menthol by PVP; assay type: physicochemical; details: for ability of enabler to encapsulate menthol: GC-Head space against control; for ability of enabler to encapsulate menthol / GC-HS area Menthol: with PVP; for GC-HS area (% of control sample): menthol, control without PVP
# [4] = GC-head space: effect of enablers on the encapsulation of menthol and limonene combination by PVP; assay type: physicochemical; details: for GC-HS area (% of control sample) Limonene / GC-HS area (% of control sample) Menthol / GC-HS area Limonene / GC-HS area Menthol: menthol + limonene with PVP
# [5] = UV-vis spectroscopy of enabler interaction with PVP (absorbance at 236 nm); assay type: physicochemical
Structure (SMILES),LogP value [2],GC-HS area Menthol ([3]; enabler concentration 0.05%),GC-HS area Menthol ([3]; enabler concentration 0.1%),GC-HS area (% of control sample) ([3]; enabler 0.05%),GC-HS area (% of control sample) ([3]; enabler 0.1%),GC-HS area (% of control sample) Limonene ([4]; enabler 0.05%),GC-HS area (% of control sample) Menthol ([4]; enabler 0.05%),GC-HS area Limonene ([4]; enabler 0.05%),GC-HS area Menthol ([4]; enabler 0.05%),GC-HS area (% of control sample) Limonene ([4]; enabler 0.1%),GC-HS area (% of control sample) Menthol ([4]; enabler 0.1%),GC-HS area Limonene ([4]; enabler 0.1%),GC-HS area Menthol ([4]; enabler 0.1%),GC-HS area (% of control sample) Limonene ([4]; enabler 0.5%),GC-HS area (% of control sample) Menthol ([4]; enabler 0.5%),GC-HS area Limonene ([4]; enabler 0.5%),GC-HS area Menthol ([4]; enabler 0.5%),further results
CC1=CCC2CC1C2(C)C (stereo not drawn) [α-Pinene],4.83,,,,,,,,,,,,,,,,,encapsulation by PVP in the presence of BHT as enabler [1]: not encapsulated
CC(C)=O [Acetone],,541,179,0.72 % of control sample,0.24 % of control sample,88.91 % of control sample,1.04 % of control sample,1825472,220,103.37 % of control sample,1.74 % of control sample,1886916,369,106.24 % of control sample,4.21 % of control sample,2004605,891,ability of enabler to encapsulate menthol [3]: effectively encapsulate menthol; GC-HS area Menthol ([3]; enabler concentration 0.5%): 199; GC-HS area (% of control sample) ([3]; enabler 0.5%): 0.27 % of control sample
CCCCCCCCCCCC(=O)OC [methyl laurate],5.41,,,,,,,,,,,,,,,,,
"Cc1cc(C(C)(C)C)c(O)c(C(C)(C)C)c1 [BHT, Butylated hydroxy toluene]",,10608,10773,14.14 % of control sample,14.36 % of control sample,108.95 % of control sample,23.30 % of control sample,1813235,4929,102.91 % of control sample,30.48 % of control sample,1866057,6449,108.30 % of control sample,58.28 % of control sample,2020945,12330,"GC-HS area Menthol ([3]; enabler concentration 0.5%): 8798; GC-HS area (% of control sample) ([3]; enabler 0.5%): 11.73 % of control sample; Absorbance ([5]; 236 nm, enabler 10 ppm with PVP in 95% v/v ethanol): 0.155; interaction of enabler with PVP ([5]; UV-vis, 10 ppm): comparatively lower activities"
CCCCC(CC)COC(=O)C=Cc1ccc(OC)cc1 (stereo not shown) [Octyl methoxy cinnamate],5.8,,,,,,,,,,,,,,,,,
CCCCCCCCCCCCN [Dodecyl amine],4.76,,,,,,,,,,,,,,,,,
CC(=O)O [Acetic acid],,708,1030,0.94 % of control sample,1.37 % of control sample,91.77 % of control sample,0.50 % of control sample,1860568,105,112.66 % of control sample,0.82 % of control sample,2096101,174,97.95 % of control sample,1.89 % of control sample,2053175,399,ability of enabler to encapsulate menthol [3]: effectively encapsulate menthol; GC-HS area Menthol ([3]; enabler concentration 0.5%): 925; GC-HS area (% of control sample) ([3]; enabler 0.5%): 1.23 % of control sample
CCCCCCCCCCN [decyl amine],1.92,,,,,,,,,,,,,,,,,
CC1CCC(C(C)C)C(O)C1 (stereo not shown) [Menthol],,,,,,,,,,,,,,,,,,selectivity of encapsulation in menthol and limonene combination ([4]; PVP with enablers): preferentially encapsulated as against limonene
"CCCCCCCCCCCCCCCCO [Cetyl alcohol, reference compound]",7.25,,,,,,,,,,,,,,,,,"interaction of the enabler with the polymer ([5]; UV-vis, concentration not given): No interaction"
Oc1cc(Cl)ccc1Oc1ccc(Cl)cc1Cl [Triclosan],,4977,3482,6.63 % of control sample,4.64 % of control sample,95.29 % of control sample,3.59 % of control sample,1925700,759,99.50 % of control sample,1.30 % of control sample,1916012,274,105.82 % of control sample,3.98 % of control sample,2027488,841,ability of enabler to encapsulate menthol [3]: effectively encapsulate menthol; GC-HS area Menthol ([3]; enabler concentration 0.3%): 6103; GC-HS area (% of control sample) ([3]; enabler 0.3%): 8.14 % of control sample; Absorbance [5]: 0.961; interaction of enabler with PVP [5]: stronger interaction with PVP
